Results published in US20240252508A1, “Novel glucose uptake inhibitors for use in the treatment of cancer” (NOVELYEAST BV, priority 2021, published 2024).

What was measured:
[1] = system: A549 lung adenocarcinoma cells; experiment: A549 cell proliferation / growth inhibition; format: cell-based, human; details: for Selected from primary screen for growth inhibition of A549 cells at 50 μM: 50 μM compound, 1 mM glucose; for Selected for having an IC50 ratio (10 mM glucose: 1 mM glucose) of A549 growth higher than WBC-A: IC50 on 10 mM vs 1 mM glucose, compared with WBC-A
Description: The analog library (n=203) was screened for inhibition of growth of A549 cells on RPMI medium supplemented with 1 mM glucose. DMSO (green bar) and WBC-A (orange bar) served as negative and positive control, respectively. In addition, the reference glucose transport inhibitors STF-31, Fasentin, BAY-876, WZB-117 and Cytochalasin B were included and indicated in red. Compounds were added at 50 μM concentration. Number of cells was determined by counting nuclei stained by Hoechst after three days of growth.
For both adherent A549 and MCF10Δ H-RAS^V12 cell lines, growth curves were established using the IncuCyte® ZOOM technology. By collecting phase contrast images, the IncuCyte® software provides a calculated confluency percentage from which growth curves can be deducted.
Cells were seeded at a density of 1000-1500 cells/well in a Nunc-Edge™ 96-well plate (Thermo Fisher Scientific) and growth was typically measured over 3 to 5 days. For the measurement of apoptosis induction using the MCF10Δ H-RAS^V12 cell line, the IncuCyte® Caspase-3/7 green dye was added to the medium in the recommended concentration at the beginning of the growth curve experiment. Apoptosis was detected by taking fluorescent images by excitation at 488 nm followed by IncuCyte® software analysis. Cell growth of the KMS-12-PE multiple myeloma cell line, which grows in suspension, was measured by manual cell counting. Cells were initially seeded at a density of 10^4 cells/well and incubated for 4 days after which the cell number was counted. For all cell lines, the same medium used for pregrowth was also used for the growth curve experiment, albeit with different glucose concentrations depending on the experimental design. With compound administration, the final concentration of DMSO never exceeded 0.1%. Typically, at least four technical repeats were included per condition.

tps1Δ cells = experiment: Growth rescue of tps1Δ strain on glucose (growth curves, 2% galactose medium); format: cell-based, S. cerevisiae; details: 100 μM compound, 2.5 mM glucose
Description: Growth curves were made by measuring OD595 in a 96-well plate using the Multiskan™ FC Microplate Photometer (Thermo Fisher Scientific). Typically, for tps1Δ rescue experiments (FIG. 2b-e; FIG. 4a), cells were (pre)grown in Complete Synthetic medium containing 2% galactose.
Compounds were always added 10 min prior to glucose addition to ensure maximal interaction between the cells and compounds. Cells originating from the preculture were harvested, washed in medium without sugar, after which they were resuspended to an OD of 0.1 in 200 μL of the appropriate medium. At least three technical replicates were included per condition. OD595 was measured at 30° C. every 30 min with a 10-min shaking interval.

| Compound | Selected from primary screen for growth inhibition of A549 cells at 50 μM [1] | Rescue of the tps1Δ strain on 2.5 mM glucose at 100 μM (tps1Δ cells) | Selected for having an IC50 ratio (10 mM glucose: 1 mM glucose) of A549 growth higher than WBC-A [1] |
| --- | --- | --- | --- |
| Cc1sc2nc(-c3cccs3)nc(N(C)Cc3nnc4n3CCCCC4)c2c1C [36A] | No | No |  |
| Cc1nc(SCCC(N)=O)c2c(-c3cccs3)csc2n1 [4B] | No | No |  |
| CCN(CC)Cc1nc(Sc2nnc(C3CC3)n2CCC(N)=O)c2c(C)c(C)sc2n1 [66A] | No | No |  |
| CCc1nc(Sc2nnc(CO)n2C)c2ccsc2n1 [41A] | Yes | No | Lower IC50 ratio |
| COc1ccc(OC)c(NC(=O)CSc2nc(C)nc3scc(-c4cccs4)c23)c1 [21B] | No | No |  |
| Cc1nc(N2CCN(CCO)CC2)c2c(-c3cccs3)csc2n1 [25B] | No | No |  |
| Cc1nc(Sc2nnc3n2CCCCC3)c2c3c(sc2n1)CCC3 [63A] | No | No |  |
| CC(C)Sc1nc(SCCN2CCOCC2)c2c3c(sc2n1)COC(C)(C)C3 [80C] | No | No |  |
| NC(=O)CSc1ncnc2scc(-c3ccccc3)c12 [82C] | No | No |  |
| Cc1nc(SCC(=O)N2CCOCC2)c2c(C)c(C)sc2n1 [47C] | No | No |  |
| CN(Cc1nnc2n1CCCCC2)c1ncnc2sc(-c3ccccc3)cc12 [34A] | No | No |  |
| COc1ccc(-c2csc3nc(C)nc(Sc4nccn4C)c23)cc1OC [42A] | Yes | No | Lower IC50 ratio |
| O=c1ccnc(Sc2nc(CN3CCOCC3)nc3scc(-c4cccs4)c23)[nH]1 [7A] | No | No |  |
| Cc1nc(SCC(=O)Nc2c(Cl)cccc2C(F)(F)F)c2c(-c3cccs3)csc2n1 [19C] | No | No |  |
| OCCSc1nc(-c2cccs2)nc2scc(-c3ccccc3)c12 [23C] | Yes | No | Lower IC50 ratio |
| Cc1nc(SCC(=O)NC(C)(C)C)c2c(-c3cccs3)csc2n1 [32B] | Yes | Yes | Lower IC50 ratio |
| CCOC(=O)c1sc2nc(C)nc(SCC(=O)CC)c2c1C [12C] | No | No |  |
| COc1ccccc1-n1ncc2c(C)nnc(SCC(N)=O)c21 [68C] | No | No |  |
| COc1ccc(-c2csc3nc(C)nc(SCCO)c23)cc1OC [18C] | No | No |  |
| COC(=O)C(C)Sc1nc(C)nc2scc(-c3cccs3)c12 (centres unmarked) [36B] | No | No |  |
| COc1ccc(-c2csc3ncnc(Sc4nnc(-c5cccc(C)c5)n4CC(N)=O)c23)cc1 [21A] | Yes | No | Lower IC50 ratio |
